The values that follow come from patent US20240002391A1, “4-ALKOXYPYRROLO[2,1-F][1,2,4]TRIAZINES AND PREPARATION AND USES THEREOF” (BioSplice Therapeutics, Inc., priority 2022, published 2024).

The target of the assay is recombinant DYRK1A kinase (Homo sapiens (Human), UniProt Q13627). The experiment in a line: DYRK1A kinase assay (Ser/Thr 18 peptide Z-lyte FRET). In kind it is biochemical. To be noted: DYRK1A kinase activity, Z-lyte Ser/Thr 18 peptide, 15 μM ATP; method text calls the value IC50; read-out: EC50 (the source's name). In short, it runs like this:
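IC50 from non-linear fits of percent phosphorylation, derived from coumarin/fluorescein emission ratio after 1 h protease development. Kinase reaction: 1 h room temperature, 15 μM ATP, 4 μM Ser/Thr peptide 18, 0.25 μg/mL recombinant DYRK1A, duplicate 11-point 1:3 dilutions from 10 μM.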
Regarding `COc1nc(N[C@H]2CC[C@@](C)(O)CC2)nn2ccc(-c3ccc4nccn4c3)c12` [Compound 55, cis-4-((5-(Imidazo[1,2-a]pyridin-6-yl)-4-methoxypyrrolo[2,1-f][1,2,4]triazin-2-yl)amino)-1-methylcyclohexan-1-ol], the IC50 came out at 6.7 nM.

As to `COc1nc(N[C@@H]2COC[C@H]2O)nn2ccc(-c3ccc4nccnc4c3)c12` [Compound 1093, (3S,4R)-4-((4-Methoxy-5-(quinoxalin-6-yl)pyrrolo[2,1-f][1,2,4]triazin-2-yl)amino)tetrahydrofuran-3-ol], the IC50 is 4.3 nM.

Turning to `CCC(=O)N[C@]1(C)C[C@H](Nc2nc(OC)c3c(-c4ccc5nccnc5c4)ccn3n2)C1` [Compound 335, N-(cis-3-((4-Methoxy-5-(quinoxalin-6-yl)pyrrolo[2,1-f][1,2,4]triazin-2-yl)amino)-1-methylcyclobutyl)propionamide], the IC50 was 2 nM. In the case of `COc1nc(NC2CCC3(CC2)COC3)nn2ccc(-c3ccc4nc(C)n(CCO)c4c3)c12` [Compound 174, 2-(6-(2-((2-Oxaspiro[3.5]nonan-7-yl)amino)-4-methoxypyrrolo[2,1-f][1,2,4]triazin-5-yl)-2-methyl-1H-benzo[d]imidazol-1-yl)ethan-1-ol] it was 3 nM; in that of `COc1nc(N[C@H]2C[C@](C)(C(=O)NC3CC3)C2)nn2ccc(-c3ccc4nnn(C)c4c3)c12` [Compound 218, trans-N-Cyclopropyl-3-((4-methoxy-5-(1-methyl-1H-benzo[d][1,2,3]triazol-6-yl)pyrrolo[2,1-f][1,2,4]triazin-2-yl)amino)-1-methylcyclobutane-1-carboxamide], 2.9 nM; in that of `COc1nc(N[C@H]2CC[C@](C)(O)CC2)nn2ccc(-c3ccc4nccnc4c3)c12` [Compound 347, trans-4-((4-Methoxy-5-(quinoxalin-6-yl)pyrrolo[2,1-f][1,2,4]triazin-2-yl)amino)-1-methylcyclohexan-1-ol], 1.7 nM. In the case of `COc1nc(N[C@H]2CCN(C(C)=O)C[C@H]2F)nn2ccc(-c3ccc4nnn(CC(F)F)c4c3)c12` [Compound 771, 1-((3R,4S)-4-((5-(1-(2,2-Difluoroethyl)-1H-benzo[d][1,2,3]triazol-6-yl)-4-methoxypyrrolo[2,1-f][1,2,4]triazin-2-yl)amino)-3-fluoropiperidin-1-yl)ethan-1-one] it was 0.1 nM. Turning to `COc1nc(N[C@H]2C[C@](C)(N3CCCC3=O)C2)nn2ccc(-c3ccc4nnn(C)c4c3)c12` [Compound 223, 1-(trans-3-((4-methoxy-5-(1-methyl-1H-benzo[d][1,2,3]triazol-6-yl)pyrrolo[2,1-f][1,2,4]triazin-2-yl)amino)-1-methylcyclobutyl)pyrrolidin-2-one], the IC50 was found to be 1.6 nM. For `COc1nc(N[C@H]2C[C@](C)(N)C2)nn2ccc(-c3ccn4nccc4c3)c12` [Compound 94, trans-N1-(4-Methoxy-5-(pyrazolo[1,5-a]pyridin-5-yl)pyrrolo[2,1-f][1,2,4]triazin-2-yl)-3-methylcyclobutane-1,3-diamine], the IC50 worked out at 4.1 nM. The value for `COc1nc(N[C@@H]2CCN(C(C)=O)CC2(F)F)nn2ccc(-c3cc(F)c4nc(C)n(CC(F)F)c4c3)c12` [Compound 526, (R)-1-(4-((5-(1-(2,2-Difluoroethyl)-4-fluoro-2-methyl-1H-benzo[d]imidazol-6-yl)-4-methoxypyrrolo[2,1-f][1,2,4]triazin-2-yl)amino)-3,3-difluoropiperidin-1-yl)ethan-1-one] was 1.6 nM. The value for `COc1nc(N[C@H](C)C2CC2)nn2ccc(-c3cnc4nccn4c3)c12` [Compound 231, (R)—N-(1-Cyclopropylethyl)-5-(imidazo[1,2-a]pyrimidin-6-yl)-4-methoxypyrrolo[2,1-f][1,2,4]triazin-2-amine] was 7.2 nM; that for `COc1nc(N[C@H]2C[C@](C)(O)C2)nn2ccc(-c3ccc4nccnc4c3)c12` [Compound 330, trans-3-((4-Methoxy-5-(quinoxalin-6-yl)pyrrolo[2,1-f][1,2,4]triazin-2-yl)amino)-1-methylcyclobutan-1-ol] was 2.3 nM. As to `COc1nc(N[C@H]2C[C@](C)(O)C2)nn2ccc(-c3ccn4nccc4c3)c12` [Compound 8, trans-3-((4-Methoxy-5-(pyrazolo[1,5-a]pyridin-5-yl)pyrrolo[2,1-f][1,2,4]triazin-2-yl)amino)-1-methylcyclobutan-1-ol], the IC50 came out at 0.6 nM. Take `COc1nc(N[C@@H]2CCN(C(C)=O)CC2(F)F)nn2ccc(-c3ccc4nnn(CCF)c4c3)c12` [Compound 669, (R)-1-(3,3-Difluoro-4-((5-(1-(2-fluoroethyl)-1H-benzo[d][1,2,3]triazol-6-yl)-4-methoxypyrrolo[2,1-f][1,2,4]triazin-2-yl)amino)piperidin-1-yl)ethan-1-one]: the IC50 was determined as 1.6 nM.

`COc1nc(NC2CC3CC3C2)nn2ccc(-c3cnc4nccn4c3)c12` (stereo not shown) [Compound 976, N-(Bicyclo[3.1.0]hexan-3-yl)-5-(imidazo[1,2-a]pyrimidin-6-yl)-4-methoxypyrrolo[2,1-f][1,2,4]triazin-2-amine]: the IC50 is 2.5 nM. In the case of `COc1nc(NC2CCN(C(C)=O)CC2)nn2ccc(-c3ccc4nc(C)n(CC(F)F)c4c3)c12` [Compound 122, 1-(4-((5-(1-(2,2-Difluoroethyl)-2-methyl-1H-benzo[d]imidazol-6-yl)-4-methoxypyrrolo[2,1-f]1[1,2,4]triazin-2-yl)amino)piperidin-1-yl)ethan-1-one], the IC50 was found to be 1.6 nM. On to `COc1nc(N[C@H]2CC[C@](C)(O)CC2)nn2ccc(-c3ccc4ncn(CC(F)F)c4c3)c12` [Compound 1139, (1r,4r)-4-((5-(1-(2,2-Difluoroethyl)-1H-benzo[d]imidazol-6-yl)-4-methoxypyrrolo[2,1-f][1,2,4]triazin-2-yl)amino)-1-methylcyclohexan-1-ol], for which the IC50 stood at 0.5 nM. As for `COc1nc(NC2CCC3(CC2)CN(C(C)=O)C3)nn2ccc(-c3ccc4nnn(C)c4c3)c12` [Compound 229, 1-(7-((4-Methoxy-5-(1-methyl-1H-benzo[d][1,2,3]triazol-6-yl)pyrrolo[2,1-f][1,2,4]triazin-2-yl)amino)-2-azaspiro[3.5]nonan-2-yl)ethan-1-one], the IC50 stood at 1.9 nM. For the compound `COc1nc(N[C@H]2CC[C@@](C)(O)CC2)nn2ccc(-c3cnc4nccn4c3)c12` [Compound 4, cis-4-((5-(Imidazo[1,2-a]pyrimidin-6-yl)-4-methoxypyrrolo[2,1-f][1,2,4]triazin-2-yl)amino)-1-methylcyclohexan-1-ol], the IC50 came out at 1.1 nM. In the case of `COc1nc(NC[C@@H]2CNCCO2)nn2ccc(-c3ccc4nnn(C)c4c3)c12` [Compound 623, (S)-4-Methoxy-5-(1-methyl-1H-benzo[d][1,2,3]triazol-6-yl)-N-(morpholin-2-ylmethyl)pyrrolo[2,1-f][1,2,4]triazin-2-amine] it was 5.1 nM; in that of `COc1nc(N[C@H]2CC[C@](C)(O)CC2)nn2ccc(-c3cc(F)c4nc(C)n(C(C)C)c4c3)c12` [Compound 168, trans-4-((5-(4-Fluoro-1-isopropyl-2-methyl-1H-benzo[d]imidazol-6-yl)-4-methoxypyrrolo[2,1-f][1,2,4]triazin-2-yl)amino)-1-methylcyclohexan-1-ol], 2.7 nM; in that of `COc1nc(N[C@H]2CCN(C)C[C@H]2F)nn2ccc(-c3ccn4nccc4c3)c12` [Compound 34, N-((3R,4S)-3-Fluoro-1-methylpiperidin-4-yl)-4-methoxy-5-(pyrazolo[1,5-a]pyridin-5-yl)pyrrolo[2,1-f][1,2,4]triazin-2-amine], 6.2 nM. For `COc1nc(N[C@@H]2CCN(C3COC3)C[C@@H]2F)nn2ccc(-c3ccc4nnn(CC(F)F)c4c3)c12` [Compound 761, 5-(1-(2,2-Difluoroethyl)-1H-benzo[d][1,2,3]triazol-6-yl)-N-((3S,4R)-3-fluoro-1-(oxetan-3-yl)piperidin-4-yl)-4-methoxypyrrolo[2,1-f][1,2,4]triazin-2-amine], the IC50 is 1.7 nM. Regarding `COc1nc(NC2CCC3(CC2)CN(C(C)=O)C3)nn2ccc(-c3ccc4nc(C)n(CCO)c4c3)c12` [Compound 173, 1-(7-((5-(1-(2-hydroxyethyl)-2-methyl-1H-benzo[d]imidazol-6-yl)-4-methoxypyrrolo[2,1-f][1,2,4]triazin-2-yl)amino)-2-azaspiro[3.5]nonan-2-yl)ethan-1-one], the IC50 worked out at 1.7 nM. In the case of `COc1nc(N[C@@H]2CN(C3COC3)C[C@@H]2F)nn2ccc(-c3ccc4nc(C)n(CC(F)F)c4c3)c12` [Compound 506, 5-(1-(2,2-Difluoroethyl)-2-methyl-1H-benzo[d]imidazol-6-yl)-N-((3R,4S)-4-fluoro-1-(oxetan-3-yl)pyrrolidin-3-yl)-4-methoxypyrrolo[2,1-f][1,2,4]triazin-2-amine] it was 2.3 nM; in that of `COc1nc(N[C@H]2CN(C)C[C@H]2F)nn2ccc(-c3ccc4nccnc4c3)c12` [Compound 351, N-((3S,4R)-4-Fluoro-1-methylpyrrolidin-3-yl)-4-methoxy-5-(quinoxalin-6-yl)pyrrolo[2,1-f][1,2,4]triazin-2-amine], 8.1 nM; in that of `COc1nc(N[C@@H]2CCN(C)C[C@@H]2F)nn2ccc(-c3cnc4nccn4c3)c12` [Compound 267, N-((3S,4R)-3-Fluoro-1-methylpiperidin-4-yl)-5-(imidazo[1,2-a]pyrimidin-6-yl)-4-methoxypyrrolo[2,1-f][1,2,4]triazin-2-amine], 4.8 nM. In the case of `COc1nc(NC2CC3CCC(C2)O3)nn2ccc(-c3cnc4nccn4c3)c12` (stereo not shown) [Compound 1150, N-(8-Oxabicyclo[3.2.1]octan-3-yl)-5-(imidazo[1,2-a]pyrimidin-6-yl)-4-methoxypyrrolo[2,1-f][1,2,4]triazin-2-amine] it was 4.4 nM.
